Toxic doses and inconclusive results are not listed. No stated cut-off is given here; in the data, active means T/C of 150% or more; inactive means T/C below 125%. Peptide text beside a SMILES is read from it. * marks the point of attachment. Tos = Cc1ccc(S(=O)(=O)*)cc1
Tested on: L1210 leukemia ip in BDF1 mice, survival T/C
Assay: NCI In Vivo Anticancer Drug Screen. Data for tumor model L1210 Leukemia (intraperitoneal) in B6D2F1 (BDF1) mice
Settings: endpoint: mean survival time, higher = longer survival
In short: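 Ratio derived from survival: compound-dosed mice over vehicle-dosed mice, all bearing a transplantable tumor.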

[1] = dose: 100.0 mg/kg/injection, schedule: Q01DX001 (ip), vehicle: saline
[2] = dose: 200.0 mg/kg/injection, schedule: Q01DX001 (ip), vehicle: saline
[3] = dose: 400.0 mg/kg/injection, schedule: Q01DX001 (ip), vehicle: saline
[4] = dose: 100.0 mg/kg/injection, schedule: Q01DX001 (ip), vehicle: saline with Tween-80
[5] = dose: 200.0 mg/kg/injection, schedule: Q01DX001 (ip), vehicle: saline with Tween-80
[6] = dose: 50.0 mg/kg/injection, schedule: Q01DX001 (ip), vehicle: saline
[7] = dose: 100.0 mg/kg/injection, schedule: Q01DX009 (ip), vehicle: saline with Tween-80
[8] = dose: 200.0 mg/kg/injection, schedule: Q01DX009 (ip), vehicle: saline with Tween-80

Measured: T/C

c1ccc2c(C(CCN3CCOCC3)(CCN3CCOCC3)CNC3=NCCN3)cccc2c1
inactive: dose: 12.5 mg/kg/injection, schedule: Q01DX009 (ip), vehicle: saline 105 % of control | dose: 25.0 mg/kg/injection, schedule: Q01DX009 (ip), vehicle: saline with Tween-80 103 % of control | dose: 25.0 mg/kg/injection, schedule: Q01DX009 (ip), vehicle: saline 109 % of control | dose: 50.0 mg/kg/injection, schedule: Q01DX009 (ip), vehicle: saline 111 % of control

N#CC(C#N)=C(c1ccccc1)C1CCCCC1
inactive: [1] 92 % of control | [2] 94 % of control | [3] 100 % of control

CC(NC(=O)CNC(=O)CNC(=O)OCc1ccccc1)C(=O)O (stereo unspecified)
inactive: dose: 100.0 mg/kg/injection, schedule: Q04DX003 (ip), vehicle: Klucel (hydroxypropylcellulose) (HPC) 97 % of control | dose: 200.0 mg/kg/injection, schedule: Q04DX003 (ip), vehicle: Klucel (hydroxypropylcellulose) (HPC) 100 % of control | dose: 400.0 mg/kg/injection, schedule: Q04DX003 (ip), vehicle: Klucel (hydroxypropylcellulose) (HPC) 91 % of control

Cn1c(=S)[nH]c2cn[nH]c2c1=O
inactive: [4] 93 % of control | [5] 97 % of control | dose: 400.0 mg/kg/injection, schedule: Q01DX001 (ip), vehicle: saline with Tween-80 89 % of control

O=C(CBr)c1cccc2c1cc(Br)c1ccccc12
inactive: dose: 13.3 mg/kg/injection, schedule: Q01DX Z (ip), vehicle: methylcellulose (MC) 94 % of control | dose: 20.0 mg/kg/injection, schedule: Q01DX Z (ip), vehicle: methylcellulose (MC) 93 % of control | dose: 30.0 mg/kg/injection, schedule: Q01DX Z (ip), vehicle: methylcellulose (MC) 100 % of control

CNC(=O)NC1ON=C(c2ccccc2)C1C(=O)NC (stereo unspecified)
inactive: [4] 98 % of control | [5] 95 % of control

Cc1ccc(S(=O)(=O)NCC(=O)NCC(=O)O)cc1 (Tos-Gly-Gly-OH)
inactive: dose: 100.0 mg/kg/injection, schedule: Q01DX009 (ip), vehicle: saline 105 % of control | dose: 200.0 mg/kg/injection, schedule: Q01DX009 (ip), vehicle: saline 94 % of control | dose: 400.0 mg/kg/injection, schedule: Q01DX009 (ip), vehicle: saline 96 % of control

Nc1c(Cl)nc(Cl)nc1C(F)(F)F
inactive: dose: 29.0 mg/kg/injection, schedule: Q01DX Z (ip), vehicle: methylcellulose (MC) 92 % of control | dose: 44.0 mg/kg/injection, schedule: Q01DX Z (ip), vehicle: methylcellulose (MC) 95 % of control

CC(=O)OCC1OC(N2C(=O)/C(=C/c3ccncc3)SC2=S)C(OC(C)=O)C(OC(C)=O)C1OC(C)=O (stereo unspecified)
inactive: dose: 25.0 mg/kg/injection, schedule: Q01DX005 (ip), vehicle: other 97 % of control | dose: 50.0 mg/kg/injection, schedule: Q01DX005 (ip), vehicle: other 94 % of control | dose: 100.0 mg/kg/injection, schedule: Q01DX005 (ip), vehicle: other 97 % of control | dose: 400.0 mg/kg/injection, schedule: Q01DX005 (ip), vehicle: other 86 % of control

O=S(=O)(O)c1ccc(CCCCCCl)cc1
inactive: dose: 100.0 mg/kg/injection, schedule: Q01DX009 (ip), vehicle: saline sonified 107 % of control | dose: 100.0 mg/kg/injection, schedule: Q04DX003 (ip), vehicle: saline 95 % of control | dose: 200.0 mg/kg/injection, schedule: Q01DX009 (ip), vehicle: saline sonified 98 % of control | dose: 200.0 mg/kg/injection, schedule: Q04DX003 (ip), vehicle: saline 100 % of control | dose: 400.0 mg/kg/injection, schedule: Q01DX009 (ip), vehicle: saline sonified 101 % of control | dose: 400.0 mg/kg/injection, schedule: Q04DX003 (ip), vehicle: saline 96 % of control

CC(=O)O[C@H]1CC[C@]2(C)[C@H]3CC[C@]4(C)[C@@H](OC(C)=O)CC[C@H]4[C@@H]3[C@@H](C)[C@]2(O)C1
inactive: dose: 50.0 mg/kg/injection, schedule: Q01DX001 (sc), vehicle: steriod suspending solution 102 % of control | dose: 100.0 mg/kg/injection, schedule: Q01DX001 (sc), vehicle: steriod suspending solution 100 % of control | dose: 200.0 mg/kg/injection, schedule: Q01DX001 (sc), vehicle: steriod suspending solution 102 % of control | dose: 400.0 mg/kg/injection, schedule: Q01DX001 (sc), vehicle: steriod suspending solution 105 % of control

CCCCC(CCC)CCC
inactive: dose: 100.0 mg/kg/injection, schedule: Q04DX002 (ip), vehicle: saline with Tween-80 103 % of control | dose: 200.0 mg/kg/injection, schedule: Q04DX002 (ip), vehicle: saline with Tween-80 94 % of control | dose: 400.0 mg/kg/injection, schedule: Q04DX002 (ip), vehicle: saline with Tween-80 106 % of control

CC1(NCc2ccc(Cl)cc2)COP(=O)(NCc2ccccc2)OC1 (stereo unspecified)
inactive: [6] 101 % of control | [1] 106 % of control | [2] 95 % of control | [3] 98 % of control

CCOC(=O)C1CC(C)=C(C)CC1C(=O)O (stereo unspecified)
inactive: [7] 87 % of control | dose: 100.0 mg/kg/injection, schedule: Q04DX003 (ip), vehicle: saline with Tween-80 98 % of control | [8] 97 % of control | dose: 200.0 mg/kg/injection, schedule: Q04DX003 (ip), vehicle: saline with Tween-80 90 % of control | dose: 400.0 mg/kg/injection, schedule: Q01DX009 (ip), vehicle: saline with Tween-80 92 % of control | dose: 400.0 mg/kg/injection, schedule: Q04DX003 (ip), vehicle: saline with Tween-80 98 % of control

CN(C)c1ncnc2c1ncn2C1OC(CO)C2NP(=O)(N(CCCl)CCCl)OC21 (stereo unspecified)
inactive: dose: 75.0 mg/kg/injection, schedule: Q01DX001 (ip), vehicle: saline 103 % of control | dose: 150.0 mg/kg/injection, schedule: Q01DX001 (ip), vehicle: saline 119 % of control

CC1(CCCOc2ccc(NC(=O)CBr)cc2)N=C(N)N=C(N)N1c1ccccc1 (stereo unspecified)
inactive: dose: 5.0 mg/kg/injection, schedule: Q01DX001 (ip), vehicle: saline 97 % of control | dose: 10.0 mg/kg/injection, schedule: Q01DX001 (ip), vehicle: saline 92 % of control | dose: 20.0 mg/kg/injection, schedule: Q01DX001 (ip), vehicle: saline 91 % of control | dose: 40.0 mg/kg/injection, schedule: Q01DX001 (ip), vehicle: saline 91 % of control | dose: 80.0 mg/kg/injection, schedule: Q01DX001 (ip), vehicle: saline 87 % of control

O=C1C=C(c2ccccc2)C(=O)C2(c3ccccc3)C=CCC(c3ccccc3)C12 (stereo unspecified)
inactive: dose: 100.0 mg/kg/injection, schedule: Q04DX002 (ip), vehicle: Klucel (hydroxypropylcellulose) (HPC) 113 % of control | dose: 200.0 mg/kg/injection, schedule: Q04DX002 (ip), vehicle: Klucel (hydroxypropylcellulose) (HPC) 113 % of control | dose: 400.0 mg/kg/injection, schedule: Q04DX002 (ip), vehicle: Klucel (hydroxypropylcellulose) (HPC) 95 % of control

COC(=O)C(C(=O)OC)c1c(N)n(C)c(=O)n(C)c1=O
inactive: dose: 100.0 mg/kg/injection, schedule: Q01DX001 (ip), vehicle: Klucel (hydroxypropylcellulose) (HPC) 93 % of control | dose: 200.0 mg/kg/injection, schedule: Q01DX001 (ip), vehicle: Klucel (hydroxypropylcellulose) (HPC) 100 % of control | dose: 400.0 mg/kg/injection, schedule: Q01DX001 (ip), vehicle: Klucel (hydroxypropylcellulose) (HPC) 100 % of control

COc1ccc(OC)c(C(=O)CCC(=O)O)c1
inactive: dose: 50.0 mg/kg/injection, schedule: Q01DX001 (ip), vehicle: carboxymethylcellulose (CMC) 94 % of control | dose: 100.0 mg/kg/injection, schedule: Q01DX001 (ip), vehicle: carboxymethylcellulose (CMC) 110 % of control | dose: 200.0 mg/kg/injection, schedule: Q01DX001 (ip), vehicle: carboxymethylcellulose (CMC) 100 % of control | dose: 400.0 mg/kg/injection, schedule: Q01DX001 (ip), vehicle: carboxymethylcellulose (CMC) 107 % of control

C=CCN(C(=O)C=C)C1CCCCC1
inactive: [6] 98 % of control | [1] 101 % of control

C=CCOC(=N)c1ccccc1
inactive: dose: 50.0 mg/kg/injection, schedule: Q01DX009 (ip), vehicle: saline with Tween-80 93 % of control | [7] 105 % of control | [8] 91 % of control

CC(=O)Nc1ccc(Cl)cc1
inactive: dose: 50.0 mg/kg/injection, schedule: Q01DX001 (ip), vehicle: other 101 % of control | dose: 100.0 mg/kg/injection, schedule: Q01DX001 (ip), vehicle: other 98 % of control | dose: 200.0 mg/kg/injection, schedule: Q01DX001 (ip), vehicle: other 101 % of control | dose: 400.0 mg/kg/injection, schedule: Q01DX001 (ip), vehicle: other 106 % of control

Source: PubChem BioAssay AID248 (DTP/NCI, 2004)
